A short description of data set [1]: Cytotoxicity, CytoTox 96 nonradioactive cytotoxicity assay on BT cells. Particulars: bovine, CytoTox 96 assay. It counts as cell-based, bovine. How it is done: (§1) To evaluate the effect of K22 on cell viability, proliferation, as well as cytotoxicity, uninfected cells were treated with the compound at the concentrations specified above or with DMSO as a control. To determine the effect of K22 on cell viability, Vero cells were collected and labeled with the Fixable Aqua dead cell stain kit (Thermo Fisher Scientific) for 30 min on ice, before the cells were washed with cold PBS and fixed for flow cytometry analysis. As a positive control for cell death, cells were heated at 65°C for 30 min. The mean fluorescence intensity (MFI) was determined by flow cytometry analysis on a FACSCanto II flow cytometer (BD Bioscience) and evaluated using FlowJo (v.9.1) software. […] The compound was added at the concentrations indicated above, and cytotoxicity was determined at 24 and/or 48 h p.i. by determination of the absorbance at 490 nm using a plate reader (VersaMax [Molecular Devices, Wokingham, UK] or an EnSpire 2300 multilabel reader [PerkinElmer, Schwerzenbach, Switzerland]). Cell proliferation following compound treatment was determined using a MultiTox-Fluor multiplex cytotoxicity assay (catalog number G9200; Promega) according to the manufacturer's recommendations. The readout was performed using a multilabel reader (EnSpire 2300 multilabel reader; PerkinElmer) upon excitation at ∼400 nm and emission at ∼505 nm. […]

Another data set has as its system BT cells. Described as above. Particulars: concentrations used for BVDV. It counts as cell-based, bovine. The procedure:
as §1

The results in this text go back to paper PMC6201103, “The Small-Compound Inhibitor K22 Displays Broad Antiviral Activity against Different Members of the Family Flaviviridae and Offers Potential as a Panviral Inhibitor” (Antimicrobial Agents and Chemotherapy, 2018).

The structures appear in SMILES notation. A value given as a limit tells only on which side of the number the result lay.

On to `O=C(N/C(=C\c1ccccc1)C(=O)N1CCC(O)(c2ccc(Br)cc2)CC1)c1ccccc1` [K22, (Z)-N-{3-[4-(4-bromophenyl)-4-hydroxypiperidin-1-yl]-3-oxo-1-phenylprop-1-en-2-yl} benzamide], for which the CC50 in data set [1] is above 1 mM. The “cellular toxicity of K22” value in the data set with BT cells was “no cellular toxicity”.

The term CC50 denotes the concentration that lowers cell viability or growth by half.
